In the supplement of paper PMC10307832:

Columns and labels:
Experiment in all cases: relative viability (nuclei count vs DMSO), 5 days (fraction); higher = more cells survive
IPA-3 + Palbociclib = compound: C1=CC=C2C(=C1)C=CC(=C2SSC3=C(C=CC4=CC=CC=C43)O)O [IPA-3] + CC(=O)c1c(C)c2cnc(Nc3ccc(N4CCNCC4)cn3)nc2n(C2CCCC2)c1=O [Palbociclib] (partner 0.5 µM)
How it was run: (§1)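 Dosing by pin tool came one day after lung cancer cell lines were seeded in 1536-well plates, using either one drug or a fixed anchor-drug dose plus five library-drug doses (not always all listed) in √10 steps. After 5 days, nuclei were counted on 4× images. Relative viability is treated-well nuclei count divided by vehicle-well nuclei count, and values are medians of duplicate plates.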

IPA-3 + Olaparib = compound: C1=CC=C2C(=C1)C=CC(=C2SSC3=C(C=CC4=CC=CC=C43)O)O [IPA-3] + O=C(c1cc(Cc2n[nH]c(=O)c3ccccc23)ccc1F)N1CCN(C(=O)C2CC2)CC1 [Olaparib] (partner 8 µM)
How it was run: as §1

IPA-3 + Luminespib = compound: C1=CC=C2C(=C1)C=CC(=C2SSC3=C(C=CC4=CC=CC=C43)O)O [IPA-3] + CCNC(=O)c1noc(-c2cc(C(C)C)c(O)cc2O)c1-c1ccc(CN2CCOCC2)cc1 [Luminespib] (partner 0.01 µM)
How it was run: as §1

Doramapimod + Vorinostat = compound: Cc1ccc(-n2nc(C(C)(C)C)cc2NC(=O)Nc2ccc(OCCN3CCOCC3)c3ccccc23)cc1 [Doramapimod] + O=C(CCCCCCC(=O)Nc1ccccc1)NO [Vorinostat] (partner 1 µM)
How it was run: as §1

UMC-11
relative viability (IPA-3 + Palbociclib; first compound 0.2 µM): 0.323 | relative viability (IPA-3 + Palbociclib; first compound 0.6325 µM): 0.333 | relative viability (IPA-3 + Palbociclib; first compound 2 µM): 0.312 | relative viability (IPA-3 + Palbociclib; first compound 6.325 µM): 0.328 | relative viability (IPA-3 + Palbociclib; first compound 20 µM): 0.337 | relative viability (IPA-3 + Olaparib; first compound 0.2 µM): 1.06 | relative viability (IPA-3 + Olaparib; first compound 0.6325 µM): 0.459 | relative viability (IPA-3 + Olaparib; first compound 2 µM): 0.338 | relative viability (IPA-3 + Olaparib; first compound 6.325 µM): 0.361 | relative viability (IPA-3 + Olaparib; first compound 20 µM): 0.384 | relative viability (IPA-3 + Luminespib; first compound 0.2 µM): 1.12 | relative viability (IPA-3 + Luminespib; first compound 0.6325 µM): 0.94 | relative viability (IPA-3 + Luminespib; first compound 2 µM): 1.05 | relative viability (IPA-3 + Luminespib; first compound 6.325 µM): 1.06 | relative viability (IPA-3 + Luminespib; first compound 20 µM): 1.53 | relative viability (Doramapimod + Vorinostat; first compound 0.02 µM): 0.371 | relative viability (Doramapimod + Vorinostat; first compound 0.06325 µM): 0.33 | relative viability (Doramapimod + Vorinostat; first compound 0.2 µM): 0.423 | relative viability (Doramapimod + Vorinostat; first compound 0.6325 µM): 0.316 | relative viability (Doramapimod + Vorinostat; first compound 2 µM): 0.379
